Entries after “also recorded” stand apart in the source; their conditions may differ.
Key:
[1] = system: panic-prone (1-AG treated) rats; assay: Sodium lactate (NaLac) challenge in panic-prone rats: radio-telemetry of locomotor and cardiovascular (HR, MAP) responses; type: in vivo, rat
Experimental: Telemetry probes (Data Science International, St. Paul Minn.) were surgically implanted into the abdomen of anaesthetize rats to measure locomotor responses. Cardiovascular responses were measured by a femoral arterial line connected to the telemetric probe which contained a pressure transducer (Data Science International, St. Paul Minn.).
The minipump was then sutured into place subcutaneously at the nape of the neck. The concentration of the solutions was such that 3.5 nmol/[…] per hour of 1-AG or d-AG was infused continuously into the DMH/PeF region for the remainder of the given experiment. In the case of the siRNA experiments specialized T-cannulae were implanted permitting access to a removable 28 g injector to direct siRNA injections to the same location as the 1-AG infusions. Additionally these rats had guide cannulae directed to the opposite DMH/PeF for bilateral infusion of siRNA.
Rats received intravenous (i.v.) infusions (10 ml over 15 min of either 0.5M NaLac or 0.9% isotonic saline (when applicable)) using a syringe pump at least five days following the initiation of 1-AG or d-AG infusions. Once a stable baseline was achieved, i.v. infusions began and cardiovascular and activity data were recorded for 15 min (similar to clinical NaLac infusions).
Cardiovascular responses (i.e., MAP and HR) were measured by a femoral arterial line connected to a telemetric probe which contained a pressure transducer (Cat. no. C50-PXT, Data Science International (DSI) St. Paul Minn.). […] MAP and HR were recorded continuously in freely moving conscious rats and are expressed as a 20 min time course. The data reported are changes in HR and MAP from the average of the baseline (t−5 to t−1) from each rat. […]
In experiments 4-6, rats were made panic vulnerable with 1-AG. 5 days after 1-AG onset, in a counterbalanced design, rats received intraperitoneal (i.p.) injections of treatment drug or vehicle 30 min prior to i.v. infusions. […] In experiment 5, baseline in an open field (OF) behavior test of anxiety was assessed (n=8) prior to 1-AG infusions. […] Immediately following the NaLac challenge, rats were placed in the OF test. […] In experiment 6,1-AG treated rats received an injection of an alternative ORX1 receptor antagonist (30 mg/kg SB408124 (N-(6,8-Difluoro-2-methyl-4-quinolinyl)-N′-(4-(dimethylamino)phenyl)urea), Tocris, in 0.2 ml/100 g volume DMSO, n=4) or vehicle (0.2 ml/100 g volume DMSO, n=6) 30 min prior to NaLac. In experiment 7, control rats (no 1-AG or NaLac treatment) were assessed in a SI test.
Adult male Sprague-Dawley rats were anesthetized and surgically implanted with telemetrical probes to measure cardiovascular activity prior to and during lactate infusions. After a 3 day recovery, rats were anaesthetized and had osmotic minipumps (previously filled with 1-AG) stereotaxically implanted unilaterally into the DMH. […] 1960, Tocris, in 0.2 ml/100 g volume DMSO, n=12], alprazolam (3 mg/kg, Sigma, in 0.2 ml/100 g volume DMSO, n=6) or vehicle (0.2 ml/100 g volume DMSO, n=11) 30 min prior lactate challenge.

[2] = system: panic-prone (1-AG treated) rats; assay: Defensive burying (defensive shock) test after NaLac challenge in panic-prone rats; type: in vivo, rat; details: 1-AG+NaLac rats
Experimental: The defensive burying test is a validated test of experimental anxiety and defensive-like behavior in rats. For four consecutive days before defensive burying test (days 3, 4, 5 and 6 post 1-AG onset), rats were acclimated to the testing apparatus by placing them for 10 min in the testing cage (a polycarbonate rat housing cage, 30.5 cm width×30.5 cm height×61 cm length) with 2.5 cm of bedding covering the floor and a small hole centered on a short dimension of the cage 2.5 cm above the bedding to accommodate the deactivated shock probe. The shock probe was 1 cm in diameter and extended 6 cm into the cage. Along the entire length of the exposed probe, 2 un-insulated wires were wrapped in parallel (not touching) so that the rat could not touch the probe without getting a shock. […] The shock intensity was set at 0.7 mA for the entire duration of testing so that the rat received a shock whenever the prod was contacted with its forepaws or snout. […] Behavioral assessments were made using software (ODLog Macropod Software for Windows, version 2.5.2) with different keystrokes coupled to each defensive behavior to accurately measure incidence and duration of each. The repertoire of behavioral reactions during a defensive burying test is well delineated and catalogued in rats. These behaviors include: 1) burying behavior, defined as duration spent pushing, shoveling, flicking and digging sawdust towards and around the prod with rapid movements of the snout and forepaws; 2) Freezing, defined as immobility with the body motionless; 3) probe exploration, defined as time spent on half of cage with probe; 4) rearing, defined as raising the body on the hind limbs in a vertical position; 5) ambulations, defined as number of times rat crossed from side of cage with probe to other; and also 5) grooming, defined as face washing, scratching, tail biting and licking of the body.
On day 1 adult male Sprague-Dawley rats (n=3/group) were anaesthetized and had osmotic minipumps (previously filled with 1-AG) stereotaxically implanted unilaterally into the DMH/PeF. […] Behavioral assessments were made using software (ODLog Macropod Software for Windows, version 2.5.2) with different keystrokes coupled to each defensive behavior to accurately measure incidence and duration of each.

[3] = 30 mg/kg i.p., experiment 5 (open field cohort)
[4] = i.p. 30 min prior to NaLac, SB334867/SB408124 30 mg/kg, alprazolam 3 mg/kg, experiments 4 and 6

Cc1nc2ccc(NC(=O)Nc3ccnc4cccnc34)cc2o1 [SB334867, N-(2-Methyl-6-benzoxazolyl)-N′-1,5-naphthyridin-4-yl urea]
NaLac induced increases in heart rate (HR) [1, 3]: attenuated | NaLac induced increases in mean arterial blood pressure (MAP) [1, 3]: attenuated | NaLac induced increases in heart rate (HR) [1, 4]: attenuated; also recorded: blocked | NaLac induced increases in mean arterial blood pressure (MAP) [1, 4]: attenuated; also recorded: blocked | grooming in defensive burying test ([2]; 30 mg/kg i.p.): No differences were detected | rearing in defensive burying test ([2]; 30 mg/kg i.p.): No differences were detected | time spent near probe in defensive burying test ([2]; 30 mg/kg i.p.): No differences were detected | NaLac-induced freezing (immobility) in defensive burying test ([2]; 30 mg/kg i.p. 30 min prior, 30 mg/kg): completely blocked; also recorded: blocks | number of times crossed line dividing halves of test cage (mid-line crossings) ([2]; 30 mg/kg i.p., sedation indicator, 30 mg/kg): No differences were detected

Reference: US8877773B2, “Methods for treating chronic obstructive pulmonary disease” (Indiana University Research and Technology Corporation, priority 2009, dated 2014)
